Measurements published in EP0227100A2, “N-Vinylimidazoles and -triazoles and pharmaceutical compositions containing them” (SHIONOGI SEIYAKU KABUSHIKI KAISHA, priority 1985, dated 1987).
Converted amounts (≈) assume the structure as drawn.

Tests used:
Format in all cases: cell-based
Trichophyton asteroides = experiment: Minimum inhibitory concentration against Trichophyton asteroides, test tube experiment in Sabouraud's dextrose broth
From the text: In the test, Sabouraud's dextrose broth* was used.

C. albicans KE-2 = experiment: Inhibition test against pseudomycelium formation of Candida albicans; conditions: minimum effective concentration preventing typical pseudomycelium formation; EMEM with 20 % calf serum, 1 x 10⁶ yeast cells per milliliter, 18 hr. at 37 °C; read-out: Inhibitory Concentration of Pseudomyselium Formation
Experimental: Inhibition test against pseudomycelium formation of Candida albicans.
C. albicans KE-2 was inoculated to EMEM (Nissan 2 made by Nissui Seiyaku, Ltd.) supplemented with 20 % calf serum so that its final inoculum might be 1 x 10⁶ yeast cells per milliliter. The test compounds were added thereon in two fold dilution series. After inocubation for 18 hr. at 37 °C, the fungal growth in each drug concentration was smeared and fixed on a slide glass, and its morphological feature on the presence or absence of the pseudomycelium formation was examined by a microscope following Giemsa staining. Minimum effective concentration was defined as the lowest concentration of the compound which prevented typical pseudomycelium formation.

[1] = system: influenza virus Ao/WSN (H₁N₁); experiment: Antiviral activity: Plaque Reduction Test in MDCK cells; conditions: unidentified influenza virus, read-out: ED 50 (1) Plaque Reduction Test
[2] = system: influenza virus Ao/WSN (H₁N₁); experiment: microbe, parasite or virus in culture; conditions: unidentified influenza virus, MDCK, 24 h, read-out: ED 50 (2) Virus Yield Test
in vitro = conditions: dog, mdck
Experimental: (3) Colony Formation Test The action to the host cell was examined by the following method: MDCK cells (coming from dog's kidney) were adjusted to a concentration of 200 cells/ml with a growth medium and poured into each pore of Lindbrow's 12 pores microplate 1 ml by 1 ml. The test compound diluted with a growth medium was added to the pores 1 ml by 1 ml, and the whole was cultivated in a cultivating apparatus filled with 5% carbon dioxide gas at 37°C for 7 days. After dyeing with 1% crystal violet dyeing solution for 15 min, the number of cell colonies was counted. The concentration of the test compound which inhibited 50% the growth of cell colonies in comparison with obtained without using the test compound was evaluated as TD₅₀ value for judging the toxicity against cell.

Structure (SMILES) | MIC (Trichophyton asteroides) [µg/mL] | minimal effective concentration (C. albicans KE-2) [µg/mL] | other results
COc1ccc(Cl)cc1C(=C1CCCCC1)n1ccnc1 [Compound I-56] | 0.1 (≈ 0.33 µM) |  | 
Oc1ccc(Cl)cc1/C(=C/c1ccc(Cl)cc1Cl)n1ccnc1 [Compound I-9] | 0.1 (≈ 0.273 µM) |  | 
Oc1ccc(Cl)cc1C(=C1CCCCC1)n1ccnc1 [Compound I-22] | 0.1 (≈ 0.346 µM) |  | 
CCC(CC)=C(c1cc(Cl)ccc1OC(C)C)n1ccnc1 [Compound I-52] | 0.1 (≈ 0.314 µM) | 0.08 | 
CCCCOc1ccc(Cl)cc1C(=C(CC)CC)n1ccnc1 [Compound I-51] |  | 0.31 | 
C=C(c1c(O)cccc1OCCCC)n1ccnc1 [Compound I-4] | 0.1 (≈ 0.387 µM) |  | 
COc1ccc(Cl)cc1C(=C1CCCCC1)n1cncn1 [Compound I-57] |  |  | EC50 [1]: 48 µg/mL (≈ 158 µM); EC50 [2]: 30 µg/mL (≈ 98.8 µM); CC50 at 168 h (in vitro): 70 µg/mL (≈ 230 µM)
CC(C)Oc1ccc(Cl)cc1C(=C1CCCCC1)n1cncn1 [Compound I-58] |  | 0.16 | 
CC(C)Oc1ccc(Cl)cc1C(=C1CCCCC1)n1ccnc1 [Compound I-66] | 0.1 (≈ 0.302 µM) | 0.08 | 
C=C(c1cc(-c2ccccc2)ccc1OC)n1ccnc1 [Compound I-49] | 0.1 (≈ 0.362 µM) |  | 
CCC(CC)=C(c1cc(Cl)ccc1O)n1ccnc1 [Compound I-5] | 0.1 (≈ 0.361 µM) | 0.63 | 
C=C(c1cc(Cl)ccc1OCC(=O)c1ccc(Cl)cc1)n1ccnc1 [Compound I-107] | 0.1 (≈ 0.268 µM) |  | 
CCC(CC)=C(c1cc(Cl)ccc1OC)n1ccnc1 [Compound I-50] | 0.1 (≈ 0.344 µM) | 0.31 | 
CCC(CC)=C(c1cc(Cl)ccc1O)n1cncn1 [Compound I-6] | 0.1 (≈ 0.36 µM) |  | 
